Results taken from US12594268B2, “Methods of treating Fabry disease in patients having a mutation in the GLA gene” (Amicus Therapeutics, Inc., priority 2018, dated 2026).
Changes are numbered by the printed parent chain.

Key:
Type in all cases: cell-based
[1] = molecular target: T1, α-Gal A mutant form T412P (Homo sapiens, UniProt P06280, T412P); assay: α-Gal A activity in lysates of transfected HEK-293 cells, T412P
T1 construct: expressed in transfected cells; host or cells: HEK-293
T1 sequence (P06280 32-429 T412P): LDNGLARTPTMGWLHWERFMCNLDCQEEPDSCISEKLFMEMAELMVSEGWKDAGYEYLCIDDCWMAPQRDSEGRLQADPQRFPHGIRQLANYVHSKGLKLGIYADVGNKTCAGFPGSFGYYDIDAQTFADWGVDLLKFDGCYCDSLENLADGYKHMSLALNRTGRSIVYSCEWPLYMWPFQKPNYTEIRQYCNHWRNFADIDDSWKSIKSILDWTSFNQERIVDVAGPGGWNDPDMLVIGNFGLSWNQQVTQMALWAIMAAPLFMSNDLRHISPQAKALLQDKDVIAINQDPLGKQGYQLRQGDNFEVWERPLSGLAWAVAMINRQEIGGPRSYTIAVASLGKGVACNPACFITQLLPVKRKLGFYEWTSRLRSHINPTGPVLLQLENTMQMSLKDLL
Procedure: (§1) Baseline and 10 μM migalastat α-Gal A activity: Differences in the α-Gal A activity between lysates incubated in the absence and presence of 10 μM migalastat were determined using a one-tailed, Mann Whitney U test; an increase at 10 μM migalastat with a p<0.05 was considered significant.
(§2) 10 μM migalastat α-Gal A activity (% WT)=(α-Gal A activity in mutant transfected cell lysates incubated with 10 μM migalastat÷α-Gal A activity in wild-type transfected cell lysates without migalastat)*100.
(§3) Absolute increase (% WT)=is the 10 μM migalastat α-Gal A activity (% WT) minus the baseline α-Gal A activity (% WT).
(§4) Relative increase is the 10 μM migalastat α-Gal A activity in mutant transfected cell lysates÷baseline α-Gal A activity in mutant transfected cell lysates incubated without migalastat.

α-Gal A mutant form M96V = molecular target: T2, α-Gal A mutant form M96V (Homo sapiens, UniProt P06280, M96V); assay: α-Gal A activity in lysates of transfected HEK-293 cells, M96V
T2 construct: expressed in transfected cells; host or cells: HEK-293
T2 sequence (P06280 32-429 M96V): T1 sequence (P06280 32-429 T412P) with M65V, P381T
Procedure: as §1, §2, §3, §4

[2] = molecular target: T3, α-Gal A mutant form E338V (Homo sapiens, UniProt P06280, E338V); assay: α-Gal A activity in lysates of transfected HEK-293 cells, E338V
T3 construct: expressed in transfected cells; host or cells: HEK-293
T3 sequence (P06280 32-429 E338V): T1 sequence (P06280 32-429 T412P) with E307V, P381T
Procedure: as §1, §2, §3, §4

[3] = molecular target: T4, α-Gal A mutant form K391E (Homo sapiens, UniProt P06280, K391E); assay: α-Gal A activity in lysates of transfected HEK-293 cells, K391E
T4 construct: expressed in transfected cells; host or cells: HEK-293
T4 sequence (P06280 32-429 K391E): T1 sequence (P06280 32-429 T412P) with K360E, P381T
Procedure: as §1, §2, §3, §4

[4] = molecular target: T5, α-Gal A mutant form Y152D (Homo sapiens, UniProt P06280, Y152D); assay: α-Gal A activity in lysates of transfected HEK-293 cells, Y152D
T5 construct: expressed in transfected cells; host or cells: HEK-293
T5 sequence (P06280 32-429 Y152D): T1 sequence (P06280 32-429 T412P) with Y121D, P381T
Procedure: as §1, §2, §3, §4

[5] = 10 μM migalastat minus baseline
[6] = 10 μM migalastat ÷ baseline activity
[7] = HEK-293 lysates, 10 μM migalastat, 5 days, mean ± SEM

What does the source list for OC[C@H]1NC[C@H](O)[C@@H](O)[C@H]1O [migalastat, (2R,3S,4R,5S)-2-(hydroxymethyl) piperdine-3,4,5-triol]?
Absolute increase (% WT) [1, 5]: 16.9 % WT; Relative increase [1, 6]: 11.21; 10 μM migalastat α-Gal A activity [1, 7]: 7159 ± 459 nmol/mg/h; 10 μM migalastat α-Gal A activity (% WT) [1, 7]: 18.6 ± 1.2 % WT; Absolute increase (% WT) (α-Gal A mutant form M96V; [5]): 24.2 % WT; Relative increase (α-Gal A mutant form M96V; [6]): 2.68; 10 μM migalastat α-Gal A activity (α-Gal A mutant form M96V; [7]): 14612 ± 1009 nmol/mg/h; 10 μM migalastat α-Gal A activity (% WT) (α-Gal A mutant form M96V; [7]): 38.1 ± 2.4 % WT; Absolute increase (% WT) [2, 5]: 24.7 % WT; Relative increase [2, 6]: 1.83; 10 μM migalastat α-Gal A activity [2, 7]: 21807 ± 845 nmol/mg/h; 10 μM migalastat α-Gal A activity (% WT) [2, 7]: 54.8 ± 2.2 % WT; Absolute increase (% WT) [3, 5]: 20.0 % WT; Relative increase [3, 6]: 2.03; 10 μM migalastat α-Gal A activity [3, 7]: 15979 ± 1367 nmol/mg/h; 10 μM migalastat α-Gal A activity (% WT) [3, 7]: 40.4 ± 2.9 % WT; Absolute increase (% WT) [4, 5]: 10.7 % WT; Relative increase [4, 6]: 2.75; 10 μM migalastat α-Gal A activity [4, 7]: 6594 ± 294 nmol/mg/h; 10 μM migalastat α-Gal A activity (% WT) [4, 7]: 16.7 ± 1.1 % WT
